{
  "source": "patent US11117900B2",
  "about": "(Vertex Pharmaceuticals Incorporated, priority 2012, dated 2021)",
  "test_system": "HCT116 colorectal cancer cells",
  "assay": "Cisplatin sensitization assay (96 h MTS cell viability);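 further: compound concentration needed to lower the IC50 of Cisplatin alone by a set fold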",
  "type": "cell-based",
  "conditions": "Cisplatin sensitization value",
  "procedure,_shortened": "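HCT116 cells were dosed simultaneously with compound and cisplatin as a full matrix of 2-fold serial dilutions from 10 μM top final concentration. Incubation was 96 h at 37° C., 5% CO2, followed by 1 h with MTS reagent for the viability read-out. Sensitization values were binned into +++, ++ and + categories.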",
  "data": [
    {"smiles": "Cn1ccc(-c2ccncc2NC(=O)c2c(N)nn3cc(F)cnc23)n1", "note": "[I-C-68, 2-amino-6-fluoro-N-(4-(1-methyl-1H-pyrazol-3-yl)pyridin-3-yl)pyrazolo[1,5-a]pyrimidine-3-carboxamide]", "values": [
      {"measurement": "Cisplatin Sensitization Assay", "result": "+ (Compounds with a Cisplatin sensitization value >0.2 μM but <5 μM are marked with “+.”)"}
    ]},
    {"smiles": "CC(=O)N1CCC(c2ccncc2NC(=O)c2c(N)nn3cc(F)cnc23)CC1", "note": "[I-C-69, N-(4-(1-acetylpiperidin-4-yl)pyridin-3-yl)-2-amino-6-fluoropyrazolo[1,5-a]pyrimidine-3-carboxamide]", "values": [
      {"measurement": "Cisplatin Sensitization Assay", "result": "+++ (Compounds with a Cisplatin sensitization value of <0.02 μM are marked with “+++.”)"}
    ]},
    {"smiles": "Nc1nn2cc(F)cnc2c1C(=O)Nc1cnccc1C1CCN(C(=O)C2CC2)CC1", "note": "[I-C-70, 2-amino-N-(4-(1-(cyclopropanecarbonyl)piperidin-4-yl)pyridin-3-yl)-6-fluoropyrazolo[1,5-a]pyrimidine-3-carboxamide]", "values": [
      {"measurement": "Cisplatin Sensitization Assay", "result": "+++ (Compounds with a Cisplatin sensitization value of <0.02 μM are marked with “+++.”)"}
    ]},
    {"smiles": "N#CC1(C(=O)N2CCC(c3ccncc3NC(=O)c3c(N)nn4cc(F)cnc34)CC2)CC1", "note": "[I-C-71, 2-amino-N-(4-(1-(1-cyanocyclopropanecarbonyl)piperidin-4-yl)pyridin-3-yl)-6-fluoropyrazolo[1,5-a]pyrimidine-3-carboxamide]", "values": [
      {"measurement": "Cisplatin Sensitization Assay", "result": "+++ (Compounds with a Cisplatin sensitization value of <0.02 μM are marked with “+++.”)"}
    ]},
    {"smiles": "Cn1nncc1-c1ccncc1NC(=O)c1c(N)nn2cc(F)cnc12", "note": "[I-C-72, 2-amino-6-fluoro-N-(4-(1-methyl-1H-1,2,3-triazol-5-yl)pyridin-3-yl)pyrazolo[1,5-a]pyrimidine-3-carboxamide]", "values": [
      {"measurement": "Cisplatin Sensitization Assay", "result": "+++ (Compounds with a Cisplatin sensitization value of <0.02 μM are marked with “+++.”)"}
    ]},
    {"smiles": "CN1CCC(c2ccncc2NC(=O)c2c(N)nn3cc(F)cnc23)CC1=O", "note": "(stereo not drawn) [I-C-73, 2-amino-6-fluoro-N-(4-(1-methyl-2-oxopiperidin-4-yl)pyridin-3-yl)pyrazolo[1,5-a]pyrimidine-3-carboxamide]", "values": [
      {"measurement": "Cisplatin Sensitization Assay", "result": "++ (Compounds with a Cisplatin sensitization value >0.02 μM but <0.2 μM are marked with “++.”)"}
    ]},
    {"smiles": "Cn1ccc2c(NC(=O)c3c(N)nn4cc(F)cnc34)cncc21", "note": "[I-C-74, 2-amino-6-fluoro-N-(1-methyl-1H-pyrrolo[2,3-c]pyridin-4-yl)pyrazolo[1,5-a]pyrimidine-3-carboxamide]", "values": [
      {"measurement": "Cisplatin Sensitization Assay", "result": "+ (Compounds with a Cisplatin sensitization value >0.2 μM but <5 μM are marked with “+.”)"}
    ]},
    {"smiles": "Nc1nn2cc(F)cnc2c1C(=O)Nc1cnccc1C1CCOC1", "note": "(stereo not drawn) [I-C-75, 2-amino-6-fluoro-N-(4-(tetrahydrofuran-3-yl)pyridin-3-yl)pyrazolo[1,5-a]pyrimidine-3-carboxamide]", "values": [
      {"measurement": "Cisplatin Sensitization Assay", "result": "++ (Compounds with a Cisplatin sensitization value >0.02 μM but <0.2 μM are marked with “++.”)"}
    ]},
    {"smiles": "Nc1nn2cc(F)cnc2c1C(=O)Nc1cnccc1CN1CCCC1=O", "note": "[I-C-76, 2-amino-6-fluoro-N-(4-((2-oxopyrrolidin-1-yl)methyl)pyridin-3-yl)pyrazolo[1,5-a]pyrimidine-3-carboxamide]", "values": [
      {"measurement": "Cisplatin Sensitization Assay", "result": "+ (Compounds with a Cisplatin sensitization value >0.2 μM but <5 μM are marked with “+.”)"}
    ]},
    {"smiles": "Cc1ncc(-c2ccncc2NC(=O)c2c(N)nn3cc(F)cnc23)n1C", "note": "[I-C-77, 2-amino-N-(4-(1,2-dimethyl-1H-imidazol-5-yl)pyridin-3-yl)-6-fluoropyrazolo[1,5-a]pyrimidine-3-carboxamide]", "values": [
      {"measurement": "Cisplatin Sensitization Assay", "result": "+++ (Compounds with a Cisplatin sensitization value of <0.02 μM are marked with “+++.”)"}
    ]},
    {"smiles": "Cc1ncn(C)c1-c1ccncc1NC(=O)c1c(N)nn2cc(F)cnc12", "note": "[I-C-78, 2-amino-N-(4-(1,4-dimethyl-1H-imidazol-5-yl)pyridin-3-yl)-6-fluoropyrazolo[1,5-a]pyrimidine-3-carboxamide]", "values": [
      {"measurement": "Cisplatin Sensitization Assay", "result": "++ (Compounds with a Cisplatin sensitization value >0.02 μM but <0.2 μM are marked with “++.”)"}
    ]},
    {"smiles": "Cn1cncc1-c1c(F)cncc1NC(=O)c1c(N)nn2cc(F)cnc12", "note": "[I-C-79, 2-amino-6-fluoro-N-(5-fluoro-4-(1-methyl-1H-imidazol-5-yl)pyridin-3-yl)pyrazolo[1,5-a]pyrimidine-3-carboxamide]", "values": [
      {"measurement": "Cisplatin Sensitization Assay", "result": "+++ (Compounds with a Cisplatin sensitization value of <0.02 μM are marked with “+++.”)"}
    ]},
    {"smiles": "CCn1cncc1-c1ccncc1NC(=O)c1c(N)nn2cc(F)cnc12", "note": "[I-C-80, 2-amino-N-(4-(1-ethyl-1H-imidazol-5-yl)pyridin-3-yl)-6-fluoropyrazolo[1,5-a]pyrimidine-3-carboxamide]", "values": [
      {"measurement": "Cisplatin Sensitization Assay", "result": "+++ (Compounds with a Cisplatin sensitization value of <0.02 μM are marked with “+++.”)"}
    ]},
    {"smiles": "COc1cncc(NC(=O)c2c(N)nn3cc(F)cnc23)c1-c1cncn1C", "note": "[I-C-81, 2-amino-6-fluoro-N-(5-methoxy-4-(1-methyl-1H-imidazol-5-yl)pyridin-3-yl)pyrazolo[1,5-a]pyrimidine-3-carboxamide]", "values": [
      {"measurement": "Cisplatin Sensitization Assay", "result": "+++ (Compounds with a Cisplatin sensitization value of <0.02 μM are marked with “+++.”)"}
    ]},
    {"smiles": "COc1cncc(NC(=O)c2c(N)nn3cc(F)cnc23)c1-c1cccnc1", "note": "[I-C-82, 2-amino-6-fluoro-N-(5′-methoxy-[3,4′-bipyridin]-3′-yl)pyrazolo[1,5-a]pyrimidine-3-carboxamide]", "values": [
      {"measurement": "Cisplatin Sensitization Assay", "result": "+++ (Compounds with a Cisplatin sensitization value of <0.02 μM are marked with “+++.”)"}
    ]},
    {"smiles": "COCCn1cncc1-c1ccncc1NC(=O)c1c(N)nn2cc(F)cnc12", "note": "[I-C-83, 2-amino-6-fluoro-N-(4-(1-(2-methoxyethyl)-1H-imidazol-5-yl)pyridin-3-yl)pyrazolo[1,5-a]pyrimidine-3-carboxamide]", "values": [
      {"measurement": "Cisplatin Sensitization Assay", "result": "++ (Compounds with a Cisplatin sensitization value >0.02 μM but <0.2 μM are marked with “++.”)"}
    ]},
    {"smiles": "COc1cncc(NC(=O)c2c(N)nn3cc(F)cnc23)c1C1CC1", "note": "[I-C-84, 2-amino-N-(4-cyclopropyl-5-methoxypyridin-3-yl)-6-fluoropyrazolo[1,5-a]pyrimidine-3-carboxamide]", "values": [
      {"measurement": "Cisplatin Sensitization Assay", "result": "++ (Compounds with a Cisplatin sensitization value >0.02 μM but <0.2 μM are marked with “++.”)"}
    ]},
    {"smiles": "CN1CCN(C(=O)C2CCN(c3ccncc3NC(=O)c3c(N)nn4cc(F)cnc34)CC2)CC1", "note": "[I-G-1, 2-amino-6-fluoro-N-(4-(4-(4-methylpiperazine-1-carbonyl)piperidin-1-yl)pyridin-3-yl)pyrazolo[1,5-a]pyrimidine-3-carboxamide]", "values": [
      {"measurement": "Cisplatin Sensitization Assay", "result": "+++ (Compounds with a Cisplatin sensitization value of <0.02 μM are marked with “+++.”)"}
    ]},
    {"smiles": "CN(C)C(=O)C1CCN(c2ccncc2NC(=O)c2c(N)nn3cc(F)cnc23)CC1", "note": "[I-G-2, 2-amino-N-(4-(4-(dimethylcarbamoyl)piperidin-1-yl)pyridin-3-yl)-6-fluoropyrazolo[1,5-a]pyrimidine-3-carboxamide]", "values": [
      {"measurement": "Cisplatin Sensitization Assay", "result": "+++ (Compounds with a Cisplatin sensitization value of <0.02 μM are marked with “+++.”)"}
    ]},
    {"smiles": "CN1CCN(C(=O)C2CCN(c3c(Cl)cncc3NC(=O)c3c(N)nn4cc(F)cnc34)CC2)CC1", "note": "[I-G-3, 2-amino-N-(5-chloro-4-(4-(4-methylpiperazine-1-carbonyl)piperidin-1-yl)pyridin-3-yl)-6-fluoropyrazolo[1,5-a]pyrimidine-3-carboxamide]", "values": [
      {"measurement": "Cisplatin Sensitization Assay", "result": "+++ (Compounds with a Cisplatin sensitization value of <0.02 μM are marked with “+++.”)"}
    ]},
    {"smiles": "CN1CCN(C(=O)C2CCN(c3c(F)cncc3NC(=O)c3c(N)nn4cc(F)cnc34)CC2)CC1", "note": "[I-G-4, 2-amino-6-fluoro-N-(5-fluoro-4-(4-(4-methylpiperazine-1-carbonyl)piperidin-1-yl)pyridin-3-yl)pyrazolo[1,5-a]pyrimidine-3-carboxamide]", "values": [
      {"measurement": "Cisplatin Sensitization Assay", "result": "+++ (Compounds with a Cisplatin sensitization value of <0.02 μM are marked with “+++.”)"}
    ]},
    {"smiles": "CN1CCN(C(=O)C2CCN(c3c(F)cncc3NC(=O)c3c(N)nn4cc(Cl)cnc34)CC2)CC1", "note": "[I-G-5, 2-amino-6-chloro-N-(5-fluoro-4-(4-(4-methylpiperazine-1-carbonyl)piperidin-1-yl)pyridin-3-yl)pyrazolo[1,5-a]pyrimidine-3-carboxamide]", "values": [
      {"measurement": "Cisplatin Sensitization Assay", "result": "+++ (Compounds with a Cisplatin sensitization value of <0.02 μM are marked with “+++.”)"}
    ]},
    {"smiles": "CN1CCCN(C(=O)C2CCN(c3c(F)cncc3NC(=O)c3c(N)nn4cc(F)cnc34)CC2)CC1", "note": "[I-G-6, 2-amino-6-fluoro-N-(5-fluoro-4-(4-(4-methyl-1,4-diazepane-1-carbonyl)piperidin-1-yl)pyridin-3-yl)pyrazolo[1,5-a]pyrimidine-3-carboxamide]", "values": [
      {"measurement": "Cisplatin Sensitization Assay", "result": "+++ (Compounds with a Cisplatin sensitization value of <0.02 μM are marked with “+++.”)"}
    ]},
    {"smiles": "Nc1nn2cc(F)cnc2c1C(=O)Nc1cncc(F)c1N1CCC(C(=O)N2CCN3CCC2CC3)CC1", "note": "[I-G-7, N-(4-(4-(1,4-diazabicyclo[3.2.2]nonane-4-carbonyl)piperidin-1-yl)-5-fluoropyridin-3-yl)-2-amino-6-fluoropyrazolo[1,5-a]pyrimidine-3-carboxamide]", "values": [
      {"measurement": "Cisplatin Sensitization Assay", "result": "+++ (Compounds with a Cisplatin sensitization value of <0.02 μM are marked with “+++.”)"}
    ]},
    {"smiles": "Nc1nn2cc(F)cnc2c1C(=O)Nc1cncc(F)c1N1CCC(C(=O)N2CCC2)CC1", "note": "[I-G-8, 2-amino-N-(4-(4-(azetidine-1-carbonyl)piperidin-1-yl)-5-fluoropyridin-3-yl)-6-fluoropyrazolo[1,5-a]pyrimidine-3-carboxamide]", "values": [
      {"measurement": "Cisplatin Sensitization Assay", "result": "+++ (Compounds with a Cisplatin sensitization value of <0.02 μM are marked with “+++.”)"}
    ]},
    {"smiles": "CCN1CCN(C(=O)C2CCN(c3c(F)cncc3NC(=O)c3c(N)nn4cc(F)cnc34)CC2)CC1", "note": "[I-G-9, 2-amino-N-(4-(4-(4-ethylpiperazine-1-carbonyl)piperidin-1-yl)-5-fluoropyridin-3-yl)-6-fluoropyrazolo[1,5-a]pyrimidine-3-carboxamide]", "values": [
      {"measurement": "Cisplatin Sensitization Assay", "result": "+++ (Compounds with a Cisplatin sensitization value of <0.02 μM are marked with “+++.”)"}
    ]},
    {"smiles": "Nc1nn2cc(F)cnc2c1C(=O)Nc1cncc(F)c1N1CCC(C(=O)N2CCN3CCCC3C2)CC1", "note": "(stereo not drawn) [I-G-10, 2-amino-6-fluoro-N-(5-fluoro-4-(4-(octahydropyrrolo[1,2-a]pyrazine-2-carbonyl)piperidin-1-yl)pyridin-3-yl)pyrazolo[1,5-a]pyrimidine-3-carboxamide]", "values": [
      {"measurement": "Cisplatin Sensitization Assay", "result": "+++ (Compounds with a Cisplatin sensitization value of <0.02 μM are marked with “+++.”)"}
    ]}
  ]
}
